The record followed here is patent US20230322815A1, “NOVEL COMPOUNDS AND THERAPEUTIC USES THEREOF” (University of Huddersfield, priority 2020, published 2023).

In test [1] the test system is panel of human cancer (HT-29, DLD-1, HCT116 p53^+/+ and p53^−/−, PSN1, MiaPaCa2, BxPC3, A549, H460, GBM1) and non-cancer cell lines (ARPE-19, MCF10A, NP1). Briefly: Chemosensitivity of a panel of human cancer and non-cancer cell lines (MTT, 96 h). Format: cell-based. As to conditions: cancer versus non-cancer cells. How it is done: FIG. 7. Chemosensitivity response of a panel of human cancer and non-cancer cell lines to 96 h continuous exposure to self-assembling test compounds. a, The potency of compounds tested against cancer (HT-29, DLD-1, HCT116 p53^+/+ and […], PSN1, MiaPaCa2, BxPC3, A549, H460 and GBM1) and non-cancer cells (ARPE-19, MCF10A and NP1). Each value represents the mean IC50±standard deviation from a minimum of three independent experiments. b,c, The selectivity index (SI) for [L2Cu3]^6+ (b) and [L2Zn3]^6+ (c) for the indicated cancer cell lines; SI is defined as the mean IC50 against the particular non-cancer cell line model divided by the mean IC50 against the particular cancer cell line. […] As the SI value is calculated using the mean IC50 values, experimental error is not included in these figures. d,e, IC50 values for the clinically approved platinates (cisplatin, oxaliplatin and carboplatin) and [L2Mn3]^6+ and the corresponding SI results.
All cell lines used were maintained at low passage in antibiotic-free media and were obtained from ATCC (LGC Standards, Middlesex, UK) unless otherwise stated (Methods). HT29, DLD-1, HCT116 p53^+/+ and HCT116 p53^−/− are all colorectal adenocarcinoma cell lines derived from different individuals and harbor different combinations of oncogenic lesions (except for the HCT116 isogenic cancer cell clones that are genetically identical except for p53 status). PSN-1, BxPC-3 and MiaPaCa2 are pancreatic carcinoma cell lines and A549 and H460 are lung carcinoma cell lines. HT29, DLD-1, PSN-1, BxPC-3, A549 and H460 cell lines were cultured in RPMI-1640 growth media (Sigma) containing 2 mM L-glutamine, 1 mM sodium pyruvate and 10% fetal bovine serum (FBS). HCT116 (p53^+/+ and p53^−/−) and MiaPaCa2 cell lines were cultured in Dulbecco's Modified Eagle's Medium (Sigma), 2 mM L-glutamine and 10% FBS. The ARPE-19 retinal epithelial non-cancer cell line (Dunn et al., 1996) was cultured in DMEM/F12 media (Gibco), 2 mM L-glutamine, 1 mM sodium pyruvate and 10% FBS. The MCF10A non-cancerous human breast epithelial cell line was cultured in Minimal Essential Media Eagle (Sigma), 2 mM L-glutamine, 1 mM sodium pyruvate, 10% FBS and 1×non-essential amino acids (NEAA). NP1 and GBM1 cells were cultured on plasticware coated with poly-L-ornithine (5 μg/ml) and laminin (2.4 μg/ml) (Polson et al., 2018; Da Silva et al., 2019). […]
[L2M3]^6+ and all the other self-assembling complexes were freshly formed by adding DMSO to individual components mixing together by pipetting. […] Media and MTT were removed and formazan crystals were dissolved in 150 μl of DMSO and the absorbance of the resulting solution determined at 540 nm. […]

The next test concerns ARPE19 non-cancer cells. Briefly: Cellular ATP levels. It counts as cell-based, human. To be noted: 100 μM, 20 h. Here is the method:
FIG. 20. The effects of [L2Cu3]^6+, [L2Zn3]^6+ and [L2Mn3]^6+ on cellular ATP levels in the ARPE19 non-cancer and HCT116 p53^+/+ cancer cells. The effects of 20 h treatment with the indicated concentrations of [L2Cu3]^6+, [L2Zn3]^6+, or [L2Mn3]^6+ on total cellular levels of ATP compared to levels in vehicle control-treated ARPE19 or HCT116^+/+ cells. n=3 biological repeats, students t-test (p values).
Cellular ATP studies: The effects of 20 h treatment with a range of different concentrations of [L2Cu3]^6+, [L2Zn3]^6+ and [L2Mn3]^6+ on total cellular ATP levels in HCT116 p53^+/+ and ARPE19 cells are presented in FIG. 20. Differential effects are observed depending on the metal in the complex, with [L2Mn3]^6+ having the most profound effects on both the HCT116 p53^+/+ cancer and ARPE19 non-cancer cells. 6.25 μM [L2Mn3]^6+ treatment for 20 h reduced ATP levels in the HCT116 p53^+/+ cancer cells to <50% with ATP levels declining less in the ARPE19 non-cancer cells but reaching ˜40% with 100 μM [L2Mn3]^6+ treatment. […] Effects of [L2Cu3]^6+ on ATP levels was much less, with ATP levels in the HCT116 cells reduced to <50% only at the highest concentration of 100 μM.

Test [2] in a line: Phosphatase activity: hydrolysis of 4-nitrophenyl phosphate. To be noted: UV-Vis spectroscopy, after 24 hrs. From the text: Only [L2Zn3(PO4)]^3+ was observed, coupled with a rapid yellowing of the solution due to the formation of 4-nitrophenolate.
The rate of substrate hydrolysis is also dependent upon the metal used in the self-assembly process.

Test [3] has as its system HCT116 p53^−/− cancer cells. Nature of the test: Autophagy (CYTO-ID staining, confocal). It counts as cell-based, human. As to conditions: 3.125 μM, 40 h. Here is the method:
FIG. 17. The effects of [L2Cu3]^6+, [L2Zn3]^6+ and [L2Mn3]^6+ on cellular vacuole formation and autophagy in the HCT116 p53^−/− cancer cells. Representative confocal images are shown of HCT116 p53^−/− cancer cells following 40 h treatment with vehicle control or 3.125 μM [L2Cu3]^6+, [L2Zn3]^6+, or [L2Mn3]^6+.
(§1) Autophagy studies: The effects of 3.125 μM [L2Cu3]^6+, [L2Zn3]^6+ and [L2Mn3]^6+ treatments (40 h) on the induction of cellular vacuoles and autophagy in the HCT116 p53^−/−, HCT116 p53^+/+ and ARPE19 cells are presented in FIGS. 17-19 with representative cell images shown. […] In the ARPE19 cells, levels of autophagy were low with all treatments and similar to basal levels in control-treated cells (FIG. 19).

Test [4] relates to HCT116 p53^+/+ cancer cells. Briefly: Autophagy (CYTO-ID staining, confocal). Format: cell-based, human. As to conditions: 3.125 μM, 40 h. How it is done: FIG. 18. The effects of [L2Cu3]^6+, [L2Zn3]^6+ and [L2Mn3]^6+ on cellular vacuole formation and autophagy in the HCT116 p53^+/+ cancer cells. Representative confocal images are shown of HCT116 p53^+/+ cancer cells following 40 h treatment with vehicle control or 3.125 μM [L2Cu3]^6+, [L2Zn3]^6+, or [L2Mn3]^6+.
as §1

In the case of `[Mn+2].[Mn+2].[Mn+2].c1ccc(-c2csc(NCCN(CCNc3nc(-c4ccccn4)cs3)CCNc3nc(-c4ccccn4)cs3)n2)nc1.c1ccc(-c2csc(NCCN(CCNc3nc(-c4ccccn4)cs3)CCNc3nc(-c4ccccn4)cs3)n2)nc1` [[L2Mn3]^6+], the “preferential selectivity towards cancer cells” value in test [1] is around 2 fold. In the test with ARPE19 non-cancer cells, the “ATP levels compared to vehicle control” value is listed as around 40%. Also, the “phosphate hydrolysed compared with the Zn^2+ species” value in test [2] is recorded as “three times more phosphate”. In addition, the induction of autophagy entry in test [3] is on record as “most pronounced”; in test [4] it was “evident”.
